From patent US20260022122A1 (Checkmate Therapeutics Inc., priority 2022, published 2026) come the findings set out here.

In assay [1] the test system is NAPRT negative lung cancer cell lines (H322, H661, H1155). The assay is described as follows: Proliferation inhibition on NAPRT negative lung cancer cell lines (CellTiter-Glo). The note with it: 72 hours. It counts as cell-based. On the procedure: (§1) A compound showing a low IC50 value was selected from the compounds of the above Examples and treated an NAPRT positive or negative lung cancer cell line with various concentrations, and then the change in cell viability for each cell line was measured. The results are presented in a graph (a few materials known as NamPT inhibitors were used as controls). A total of 9 cancer cells lines (three NAPRT negative cell lines: H322, H661, and H1155; and six NAPRT positive cell lines: H1993, H2122, H2030, H1975, H1299, and HBEC30) were used. 5% fetal bovine serum (Gibco, US) and 1% penicillin/streptomycin (Gibco) were added to a medium, and the cells were cultured in a 37° C. constant temperature incubator containing 5% CO2. For compound treatment, each type of cells were seeded at 3×10^3 cells/well in a 96-well plate (Corning) and then incubated in a 37° C. constant temperature incubator containing 5% CO2 for 18 hours. […] Afterwards, the cells were cultured in an incubator containing 5% CO2 at 37° C. for 72 hours. To confirm the effect of inhibiting the proliferation of cancer cells, a CellTiter-Glo Luminescent Cell Viability Assay (Promega) was used. After treating the cells with 10 μL of CellTiter-Glo luciferase reagent and leaving them for 15 minutes at room temperature, the luminescence of each well was measured using EnVision2105 (PerkinElmer). The change in cell viability by the compound diluted at the concentration of each step was converted into a relative % value for the amount of luminescence shown by DMSO treatment. EC50 is expressed as the concentration of each compound that induces 50% of the maximum luminescence level.
(§2) The results of measuring the proliferation inhibition ability of the compound of each Example on nine types of lung cancer cell lines, obtained through the above experiment, are shown in Table 2 in the unit of EC50 (μM). The resulting values are expressed as follows.
On the technique in general: ATP-based viability assays read luminescence as a measure of living cells.

Assay [2] deals with NAPRT positive cell lines (H1993, H2122, H2030, H1975, H1299, HBEC30). The assay is described as follows: Proliferation inhibition on NAPRT positive lung cancer cell lines (CellTiter-Glo). It counts as cell-based. The note with it: 72 hours. The procedure: as §1, §2
The next assay has as its target NamPT (Homo sapiens (Human), UniProt P43490). The assay is described as follows: Measurement of NamPT inhibitory ability IC50 (NamPT colorimetric assay kit, Abcam ab221819). In kind it is biochemical. The note with it: NamPT recombinant protein, WST-1 absorbance at 450 nm; class key in μM. On the procedure: To test the effect of the compound prepared in each Example on the substrate decomposition rate (Vmax/min) mediated by NamPT enzyme, IC50 was calculated. In this experiment, the NamPT colorimetric assay kit (ab221819) produced by Abcam was used, and Graph prism software was used for IC50 calculation. PRPP, ATP, NMNAT1, NamPT recombinant proteins, and various concentrations of the compound of each Example (half-log step dilution from 100 μM) were added to nicotinamide to synthesize nicotinamide adenine dinucleotide (NAD) from the nicotinamide, and a total of 60 μL of the reaction solution was reacted at room temperature for 1 hour. WST-1 formazan converted by NAD generated by adding WST-1 was measured. The result of the reaction was obtained by the following formula by measuring absorbance using EnVision2105 (PerkinElmer) at 450 nm for 60 minutes at 2-minute intervals.
In Mathematical Formula 1, T1 and T2 are arbitrary times, and A1 and A2 represent the absorbance measured at T1 and T2 at 450 nm, respectively.
The results of measuring the NamPT inhibition activity of the compound of each Example obtained through the above experiment are shown in Table 1 in the unit of IC50 (nM), and the result values are expressed as follows.

NamPT, sequence (P43490 whole entry): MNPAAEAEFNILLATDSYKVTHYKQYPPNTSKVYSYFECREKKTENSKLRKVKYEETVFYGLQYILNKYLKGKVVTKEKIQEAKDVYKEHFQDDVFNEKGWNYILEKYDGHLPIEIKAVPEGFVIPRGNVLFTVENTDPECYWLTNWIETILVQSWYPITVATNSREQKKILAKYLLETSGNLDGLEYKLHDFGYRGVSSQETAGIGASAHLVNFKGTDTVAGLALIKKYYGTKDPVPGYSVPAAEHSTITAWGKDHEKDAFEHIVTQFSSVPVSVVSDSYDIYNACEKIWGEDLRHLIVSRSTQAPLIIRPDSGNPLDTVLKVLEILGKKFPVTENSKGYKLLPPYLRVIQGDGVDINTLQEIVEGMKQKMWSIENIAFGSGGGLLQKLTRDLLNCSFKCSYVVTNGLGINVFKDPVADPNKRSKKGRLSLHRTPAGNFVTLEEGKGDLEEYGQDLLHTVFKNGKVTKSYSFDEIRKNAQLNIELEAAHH

The term EC50 denotes the midpoint of the concentration-response curve. One may read the IC50 as the concentration that inhibits the measured activity by half. Consider `CS(=O)(=O)c1ccc2oc(-c3ccc(CNC(=O)c4cnc5nccn5c4)cc3)nc2c1` [Example 9, N-[[4-(5-methylsulfonyl-1,3-benzoxazol-2-yl)phenyl]methyl]imidazo[1,2-a]pyrimidin-6-carboxamide], for which the EC50 in assay [1] was less than 0.05 µM; in assay [2], greater than 101 µM. Besides, the IC50 on NamPT was less than 0.05 µM.
`CC(C)c1ccc2nc(-c3ccc(CNC(=O)c4cnc5nccn5c4)cc3)oc2c1` [Example 3]: the EC50 was less than 0.05 µM in assay [1] and greater than 101 µM in assay [2].
With `CN(C)C(=O)c1ccc2oc(-c3ccc(CNC(=O)c4cnc5nccn5c4)cc3)nc2c1` [Example 32, 2-[4-[(imidazo[1,2-a]pyrimidin-6-carbonylamino)methyl]phenyl]-N,N-dimethyl-1,3-benzoxazol-5-carboxamide], the EC50 in assay [1] is less than 0.05 µM; in assay [2], 10 to 100 µM. Further, the IC50 on NamPT was less than 0.05 µM.
Regarding `O=C(NCc1ccc(-c2nc3cc(C(=O)N4CCCC4)ccc3o2)cc1)c1cnc2nccn2c1` [Example 34, N-[[4-[5-(pyrrolidine-1-carbonyl)-1,3-benzoxazol-2-yl]phenyl]methyl]imidazo[1,2-a]pyrimidin-6-carboxamide], the concentration for a half-maximal effect (EC50) in assay [1] is less than 0.05 µM; in assay [2], 10 to 100 µM. The IC50 on NamPT is less than 0.05 µM.
Consider `O=C(NCc1ccc(-c2nc3cc(S(=O)(=O)c4ccccc4)ccc3o2)cc1)c1cnc2nccn2c1` [Example 38, N-[[4-[5-(benzenesulfonyl)-1,3-benzoxazol-2-yl]phenyl]methy]imidazo[1,2-a]pyrimidin-6-carboxamide], for which the EC50 was 0.051 to 0.1 µM in assay [1] and greater than 101 µM in assay [2]. Besides, the IC50 at NamPT is less than 0.05 µM.
Regarding `O=C(NCc1ccc(-c2nc3ccccc3o2)cc1)c1cnc2nccn2c1` [Example 2, N-[[4-(1,3-benzoxazol-2-yl)phenyl]methyl]imidazo[1,2-a]pyrimidin-6-carboxamide], the EC50 in assay [1] is less than 0.05 µM; in assay [2] it was greater than 101 µM. Besides, at NamPT, the IC50 was 0.051 to 0.1 µM.
For `O=C(NCc1ccc(-c2nc3cc(C(=O)N4CCC4)ccc3o2)cc1)c1cnc2nccn2c1` [Example 33, N-[[4-[5-(azetidin-1-carbonyl)-1,3-benzoxazol-2-yl]phenyl]methyl]imidazo[1,2-a]pyrimidin-6-carboxamide] the same measures were less than 0.05 µM, greater than 101 µM and less than 0.05 µM.
For `COc1ccc2nc(-c3ccc(CNC(=O)c4cnc5nccn5c4)cc3)oc2c1` [Example 22, N-[[4-(6-methoxy-1,3-benzoxazol-2-yl)phenyl]methyl]imidazo[1,2-a]pyrimidin-6-carboxamide] the same measures were 0.051 to 0.1 µM, greater than 101 µM and less than 0.05 µM.
Regarding `CCNC(=O)c1ccc2oc(-c3ccc(CNC(=O)c4cnc5nccn5c4)cc3)nc2c1` [Example 31, N-ethyl-2-[4-[(imidazo[1,2-a]pyrimidin-6-carbonxylamino)methyl]phenyl]-1,3-benzoxazol-5-carboxamide], the results for the EC50 in assay [1] and in assay [2] were less than 0.05 µM and greater than 101 µM, respectively. Also, the IC50 at NamPT is less than 0.05 µM.
Take `Cc1ccc2nc(-c3ccc(CNC(=O)c4cnc5nccn5c4)cc3)oc2n1` [Example 24, N-[[4-(5-methyloxazolo[5,4-b]pyridin-2-yl)phenyl]methyl]imidazo[1,2-a]pyrimidin-6-carboxamide]: the IC50 at NamPT is less than 0.05 µM.
In the case of `O=C(NCc1ccc(-c2nc3c(F)cc(F)cc3o2)cc1)c1cnc2nccn2c1` [Example 40, N-[[4-(4,6-difluoro-1,3-benzoxazol-2-yl)phenyl]methyl]imidazo[1,2-a]pyrimidin-6-carboxamide], the IC50 on NamPT was less than 0.05 µM.
For `Cc1cccc2nc(-c3ccc(CNC(=O)c4cnc5nccn5c4)cc3)oc12` [Example 21, N-[[4-(7-methyl-1,3-benzoxazol-2-yl)phenyl]methyl]imidazo[1,2-a]pyrimidin-6-carboxamide], the IC50 on NamPT was 0.11 to 1 µM.
As to `O=C(NCc1ccc(-c2nc3cc(F)ccc3o2)cc1)c1cnc2nccn2c1` [Example 18, N-[[4-(5-fluoro-1,3-benzoxazol-2-yl)phenyl]methyl]imidazo[1,2-a]pyrimidin-6-carboxamide], the IC50 on NamPT lay within 0.11 to 1 µM.
On the same count and under the same terms, the value for `O=C(NCc1ccc(-c2nc3cc(OCc4ccccc4)ccc3o2)cc1)c1cnc2nccn2c1` [Example 55, N-[[4-(5-benzyloxy-1,3-benzoxazol-2-yl)phenyl]methyl]imidazo[1,2-a]pyrimidin-6-carboxamide] was greater than 1 µM.
The same measure, in the same setting: to `O=C(NCc1ccc(-c2nc3cc(-c4ccccc4)ccc3o2)cc1)c1cnc2nccn2c1` [Example 56, N-[[4-(5-phenyl-1,3-benzoxazol-2-yl)phenyl]methyl]imidazo[1,2-a]pyrimidin-6-carboxamide] belongs 0.11 to 1 µM.
Take `O=C(NCc1ccc(-c2nc3ccc(Oc4ccccc4)cc3o2)cc1)c1cnc2nccn2c1` [Example 57, N-[[4-(6-phenoxy-1,3-benzoxazol-2-yl)phenyl]methyl]imidazo[1,2-a]pyrimidin-6-carboxamide]: the IC50 on NamPT was greater than 1 µM.
Still for that read-out and setting: to `Cc1ccc2nc(-c3ccc(CNC(=O)c4cnc5nccn5c4)nc3)oc2c1` [Example 28, N-[[5-(6-methyl-1,3-benzoxazol-2-yl)-2-pyridyl]methyl]imidazo[1,2-a]pyrimidin-6-carboxamide] belongs 0.11 to 1 µM; to `Nc1ccc2nc(-c3ccc(CNC(=O)c4cnc5nccn5c4)cc3)oc2c1` [Example 26, N-[[4-(6-amino-1,3-benzoxazol-2-yl)phenyl]methyl]imidazo[1,2-a]pyrimidin-6-carboxamide], 0.051 to 0.1 µM.
Still for that read-out and setting: the value for `O=C(NCc1ccc(-c2nc3cc(Oc4ccccn4)ccc3o2)cc1)c1cnc2nccn2c1` [Example 25, N-[[4-[5-(2-pyridyloxy)-1,3-benzoxazol-2-yl]phenyl]methyl]imidazo[1,2-a]pyrimidin-6-carboxamide] was less than 0.05 µM.
On the same count and under the same terms, to `O=C(NCc1ccc(-c2nc3cc(Cl)ccc3o2)cc1)c1cnc2nccn2c1` [Example 16, N-[[4-(5-chloro-1,3-benzoxazol-2-yl)phenyl]methyl]imidazo[1,2-a]pyrimidin-6-carboxamide] belongs less than 0.05 µM; to `Nc1ccc2oc(-c3ccc(CNC(=O)c4cnc5nccn5c4)cc3)nc2c1` [Example 46, N-[[4-(5-amino-1,3-benzoxazol-2-yl)phenyl]methyl]imidazo[1,2-a]pyrimidin-6-carboxamide], 0.051 to 0.1 µM; to `O=C(NCc1ccc(-c2nc3cc(-c4cccnc4)ccc3o2)cc1)c1cnc2nccn2c1` [Example 27, N-[[4-[5-(3-pyridyl)-1,3-benzoxazol-2-yl]phenyl]methyl]imidazo[1,2-a]pyrimidin-6-carboxamide], 0.051 to 0.1 µM.
Consider `O=C(NCc1ccc(-c2nc3cc(C(F)(F)F)c(Cl)cc3o2)cc1)c1cnc2nccn2c1` [Example 41, N-[[4-[6-chloro-5-(trifluoromethyl)-1,3-benzoxazol-2-yl]phenyl]methyl]imidazo[1,2-a]pyrimidin-6-carboxamide], for which the IC50 at NamPT was less than 0.05 µM.
On the same count and under the same terms, the value for `O=C(NCc1ccc(-c2nc3cc(Cl)ccc3s2)cc1)c1cnc2nccn2c1` [Example 49, N-[[4-(5-chloro-1,3-benzothiazol-2-yl)phenyl]methyl]imidazo[1,2-a]pyrimidin-6-carboxamide] was less than 0.05 µM.
Take `O=C(NCc1ccc(-c2nc3cc(F)c(F)cc3o2)cc1)c1cnc2nccn2c1` [Example 39, N-[[4-(5,6-difluoro-1,3-benzoxazol-2-yl)phenyl]methyl]imidazo[1,2-a]pyrimidin-6-carboxamide]: the IC50 at NamPT was less than 0.05 µM.
Still for that read-out and setting: to `O=C(NCc1ccc(-c2nc3ccc(Cl)cc3o2)cn1)c1cnc2nccn2c1` [Example 63, N-[[5-(6-chloro-1,3-benzoxazol-2-yl)-2-pyridyl]methyl]imidazo[1,2-a]pyrimidin-6-carboxamide] belongs less than 0.05 µM.
As for `Cc1ccc2nc(-c3ccc(C(C)NC(=O)c4cnc5nccn5c4)cc3)oc2c1` (centres unmarked) [Example 64, N-[1-[4-(6-methyl-1,3-benzooxazol-2-yl)phenyl]ethyl]imidazo[1,2-a]pyrimidin-6-carboxamide], the IC50 on NamPT is greater than 1 µM.
